In ChEMBL document CHEMBL1139942, “Geldanamycin derivatives and neuroprotective effect on cultured P19-derived neurons” (Bioorg Med Chem Lett, 2007):
Activity calls are given as the source filed them. The calls are words filed in the database; no cut-off is given here.

How the values were obtained:
[1] = Cell viability of mouse P19 derived neurons at 1 nM by XTT reduction assay relative to control; type: functional
[2] = Neuroprotective activity against paclitaxel-induced toxicity in mouse P19 derived neurons assessed as cell viability at 1 nM; type: functional; conditions: read-out: Activity
P19 = assay: Cytotoxicity against mouse P19 cells after 18 hrs; type: functional, cell-based; conditions: P19, 18 h
[3] = Neurotoxicity against mouse P19 derived neurons after 18 hrs; type: toxicity
[4] = Therapeutic index, ratio of neurotoxic IC50 to neuroprotective activity for mouse P19 derived neurons
Mus musculus [5] = organism: Mus musculus; assay: Neuroprotective activity against paclitaxel-induced toxicity in mouse P19 derived neurons assessed as cell viability at 1 nM after 18 hrs by phase contrast microscope; type: functional
Mus musculus [6] = organism: Mus musculus; assay: Neuroprotective activity against vinblastine-induced toxicity in mouse P19 derived neurons assessed as cell viability at 1 nM after 18 hrs by phase contrast microscope; type: functional

## CCOC1=C2C[C@@H](C)C[C@H](OC)[C@H](O)[C@@H](C)/C=C(\C)[C@H](OC(N)=O)[C@@H](OC)/C=C\C=C(/C)C(=O)NC(=C(OCC)C1=O)C2=O
[1]
  Activity: 0%

## CCOC1=C2C[C@@H](C)C[C@H](OC)[C@H](O)[C@@H](C)/C=C(\C)[C@H](OC(N)=O)[C@@H](OC)/C=C\C=C(/C)C(=O)NC(=CC1=O)C2=O
[1]
  Activity: 113%
[2]
  viability at 0.001 µM: 100%
P19
  IC50: 100 nM
[3]
  IC50 at 18 h: 1600 nM

## CO[C@H]1/C=C\C=C(/C)C(=O)Nc2cc(O)c(O)c(c2O)C[C@@H](C)C[C@H](OC)[C@H](O)[C@@H](C)/C=C(\C)[C@@H]1OC(N)=O
[1]
  Activity: 43%

## CCCNC1=C2C[C@@H](C)C[C@H](OC)[C@H](O)[C@@H](C)/C=C(\C)[C@H](OC(N)=O)[C@@H](OC)/C=C\C=C(/C)C(=O)NC(=CC1=O)C2=O
[1]
  Activity: 0%

## CO[C@H]1/C=C\C=C(/C)C(=O)NC2=CC(=O)C(N)=C(C[C@@H](C)C[C@H](OC)[C@H](O)[C@@H](C)/C=C(\C)[C@@H]1OC(N)=O)C2=O
[1]
  Activity: 85%

## COC1=C2C[C@@H](C)C[C@H](OC)[C@H](O)[C@@H](C)/C=C(\C)[C@H](OC(N)=O)[C@@H](OC)/C=C\C=C(/C)C(=O)NC(=CC1=O)C2=O [GELDANAMYCIN]
[1]
  Activity: 121%
[2]
  viability at 0.001 µM: 100%
P19
  IC50: 100 nM
[3]
  IC50 at 18 h: 1800 nM
[4]
  selectivity ratio: > 1800

## C=CCNC1=C2C[C@@H](C)C[C@H](OC)[C@H](O)[C@@H](C)/C=C(\C)[C@H](OC(N)=O)[C@@H](OC)/C=C\C=C(/C)C(=O)NC(=CC1=O)C2=O
[1]
  Activity: 66%

## CO[C@H]1/C=C\C=C(/C)C(=O)NC2=C(NCCCO)C(=O)C(NCCCO)=C(C[C@@H](C)C[C@H](OC)[C@H](O)[C@@H](C)/C=C(\C)[C@@H]1OC(N)=O)C2=O
[1]
  Activity: 0%

## CO[C@H]1/C=C\C=C(/C)C(=O)NC2=CC(=O)C(NCc3ccccc3)=C(C[C@@H](C)C[C@H](OC)[C@H](O)[C@@H](C)/C=C(\C)[C@@H]1OC(N)=O)C2=O
[1]
  Activity: 44%

## CCNC1=C2C[C@@H](C)C[C@H](OC)[C@H](O)[C@@H](C)/C=C(\C)[C@H](OC(N)=O)[C@@H](OC)/C=C\C=C(/C)C(=O)NC(=CC1=O)C2=O
[1]
  Activity: 49%

## CCCNC1=C2C[C@@H](C)C[C@H](OC)[C@H](O)[C@@H](C)/C=C(\C)[C@H](OC(N)=O)[C@@H](OC)/C=C\C=C(/C)C(=O)NC(=C(NCCC)C1=O)C2=O
[1]
  Activity: 0%

## CNC1=C2C[C@@H](C)C[C@H](OC)[C@H](O)[C@@H](C)/C=C(\C)[C@H](OC(N)=O)[C@@H](OC)/C=C\C=C(/C)C(=O)NC(=C(NC)C1=O)C2=O
[1]
  Activity: 46%

## COC1=C2C[C@@H](C)C[C@H](OC)[C@H](O)[C@@H](C)/C=C(\C)[C@H](OC(N)=O)[C@@H](OC)/C=C\C=C(/C)C(=O)NC(=C(N)C1=O)C2=O
[1]
  Activity: 91%

## COC1=C2C[C@@H](C)C[C@H](OC)[C@H](O)[C@@H](C)/C=C(\C)[C@H](OC(N)=O)[C@@H](OC)/C=C\C=C(/C)C(=O)NC(=C(OC)C1=O)C2=O
[1]
  Activity: 108%
[2]
  viability at 0.001 µM: 120%
P19
  IC50: > 10000 nM
Mus musculus [5]
  Activity: Active
Mus musculus [6]
  Activity: Active
[3]
  IC50 at 18 h: > 10000 nM
[4]
  selectivity ratio: > 10000

## CCCOC1=C2C[C@@H](C)C[C@H](OC)[C@H](O)[C@@H](C)/C=C(\C)[C@H](OC(N)=O)[C@@H](OC)/C=C\C=C(/C)C(=O)NC(=CC1=O)C2=O
[1]
  Activity: 121%
[2]
  viability at 0.001 µM: 100%
P19
  IC50: 200 nM
[3]
  IC50 at 18 h: 6700 nM

## CO[C@H]1/C=C\C=C(/C)C(=O)NC2=CC(=O)C(O)=C(C[C@@H](C)C[C@H](OC)[C@H](O)[C@@H](C)/C=C(\C)[C@@H]1OC(N)=O)C2=O
[1]
  Activity: 50%

## CO[C@H]1/C=C\C=C(/C)C(=O)NC2=CC(=O)C(OCc3ccccc3)=C(C[C@@H](C)C[C@H](OC)[C@H](O)[C@@H](C)/C=C(\C)[C@@H]1OC(N)=O)C2=O
[1]
  Activity: 111%
[2]
  viability at 0.001 µM: 100%
P19
  IC50: 500 nM
[3]
  IC50 at 18 h: > 10000 nM
